Reference: PubChem BioAssay (NCI)
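Interpolation was linear, between the two tested concentrations surrounding the appropriate level; five concentrations were tested over 48 hours in 96-well plates. TGI: total growth inhibition.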

How the values were obtained:
Assay in all cases: DTP human tumour cell line panel, 48 h
DLD-1 colon = system: DLD-1 colon
XF 498 CNS = system: XF 498 CNS
DMS 273 small cell lung = system: DMS 273 small cell lung
NCI-H460 lung = system: NCI-H460 lung
HT29 colon = system: HT29 colon
DMS 114 small cell lung = system: DMS 114 small cell lung
M19-MEL melanoma = system: M19-MEL melanoma
RXF-631 renal = system: RXF-631 renal
LXFL 529 NSCLC = system: LXFL 529 NSCLC
HOP-18 NSCLC = system: HOP-18 NSCLC
KM20L2 colon = system: KM20L2 colon
SNB-78 CNS = system: SNB-78 CNS
K-562 leukemia = system: K-562 leukemia

Structure (SMILES)	TGI (DLD-1 colon) [µM]	TGI (XF 498 CNS) [µM]	TGI (DMS 273 small cell lung) [µM]	TGI (NCI-H460 lung) [µM]	TGI (HT29 colon) [µM]	TGI (DMS 114 small cell lung) [µM]	TGI (M19-MEL melanoma) [µM]	TGI (RXF-631 renal) [µM]	TGI (LXFL 529 NSCLC) [µM]	TGI (HOP-18 NSCLC) [µM]	TGI (KM20L2 colon) [µM]	TGI (SNB-78 CNS) [µM]	TGI (K-562 leukemia) [µM]
c1ccc2c(NCCCCCCCCNc3cccc4ccccc34)cccc2c1	> 100	> 100	80.6	60.5	> 100	68.2	> 10	34.5	38.1	58.6	> 100	> 100	80.9
CCC12CC[C@H](C#N)N3CCc4c(n(c5ccccc45)C(=O)C1)C32 (some centres undefined)	43.8	36.5	19	33.8	31.3		73.2	45.1	33.7		35	51.9	35
Cc1nc2c(s/c(=N\N)n2-c2ccccc2)c(=O)[nH]1	> 100	> 100	> 100	> 100	> 100	> 100	> 100		> 100		> 100	> 100	> 100
BrC12C3C4C5C(C(C43)C13OCCO3)C52 (centres undefined)	> 100	> 100	> 100	> 100	> 100	> 100	> 100	> 100	> 100	> 100	> 100	> 100	> 100
COc1ccc2c(c1)CC1NC2Cc2ccccc21 (centres undefined)	> 100	> 100		> 100	> 100	> 100	> 100		> 100	> 100	> 100	> 100	> 100
CC1C(c2ccccc2)=CCON1c1ccccc1 (centres undefined)	> 100	> 100		> 100	> 100	> 100	> 100		> 100		> 100	> 100	> 100
N=c1oc2cc(O)c(O)cc2cc1C(N)=O	> 100	> 100	> 100	> 100	> 100	> 100	> 100	> 100	> 100		> 100	> 100	> 100
c1cc2[se][se]c3c4cccc5[se][se]c(c(c1)c23)c54	> 100	> 100	> 100	> 100	> 100	> 100	> 100		> 100	> 100	> 100	> 100	> 100
O=C1OC(c2ccccc2)(c2ccccc2)CC1CN1CCOCC1 (centres undefined)	31.8		> 100	> 100	15.1	32.6	31	43.8	26.9	27.7	36.6		78.7
CC(C)(C)c1cc(N=NC(=S)NCc2ccccc2)cc(C(C)(C)C)c1O	> 100	> 100	> 100	> 100	> 100	> 100	> 100	> 100	> 100		> 100		> 100
CC[N+](CC)(CC)Cc1cn(S(=O)(=O)c2ccccc2)c2ccccc12	> 100	> 100	> 100	> 100	> 100	> 100	> 100				> 100		> 100
Cc1nc(Nc2ccccc2)sc1C(=O)NNC(N)=O	> 100	> 100	> 100	> 100		> 100	> 100		> 100	> 100	> 100	> 100	> 100
O=C(O/N=C1/CCC/C1=C\c1ccccc1)c1ccccc1	> 100		> 100		> 100	> 100			89.9	> 100	> 100	> 100	> 100
CCOC(=O)C1=C(C)C2C3C(=O)NC(=O)C3C1(C)C1C(=O)NC(=O)C21 (centres undefined)	> 100		> 100	> 100	> 100	> 100	> 100		> 100	> 100	> 100	> 100	> 100
O=C(/C=C(\O)C(=O)O)/C=C(\O)c1ccccc1Cl	> 100	> 100	> 100	> 100	> 100	> 100			> 100	> 100	> 100		> 100
O=C(/C=C\c1cccc2ccccc12)c1ccc(Br)cc1	38.4		34.5	37.2	35.3	32.2	33.9		32.8	43.4	32.2	41.5	44.2
Cc1cccc(NC(=O)CSc2nnc(Cc3ccccc3)o2)c1	> 100		> 100	> 100	> 100	> 100			> 100	> 100	> 100	> 100	> 100
Cc1ccc(C2=NN(C)COC2C(F)(F)F)cc1 (centres undefined)	> 100		> 100	> 100	> 100	> 100	> 100	> 100	> 100	> 100	> 100	> 100	> 100
CC(C)C1=CC(=O)C(C)(C2=NC(C)(C)CO2)c2ccccc21 (centres undefined)	> 100	> 100	> 100	> 100	> 100	> 100	> 100	> 100	> 100	> 100	> 100		> 100
CCOC(=O)C(=O)Nc1ccc([N+](=O)[O-])cc1C#N	> 100	> 100		> 100	> 100	> 100	> 100	> 100	> 100	> 100			> 100
O=C(CSc1nnc(-c2ccc(N=Cc3ccc(Cl)cc3)cc2)o1)Nc1ccccc1		> 100	70.6	> 100	> 100	> 100	> 100		> 100	> 100	> 100	> 100	> 100
Cc1c(C(=O)Nc2ccc(Cl)c(C(F)(F)F)c2)oc2cc(O)ccc2/c1=N\NC(N)=S	> 100	> 100	> 100	> 100	> 100	> 100	> 100		> 100	> 100	> 100	> 100	> 100
NC(=S)Nc1nnc(-c2ccc(-c3nnc(NC(N)=S)o3)cc2)o1	> 100		> 100	> 100	> 100	> 100	> 100		> 100	> 100	> 100	> 100	> 100
